Source: ChEMBL document CHEMBL4665710, “Myrcaulones A-C, Unusual Rearranged Triketone-Terpene Adducts from Myrciariacauliflora” (J Nat Prod, 2020)
The source made the active and inactive calls. The rule behind the calls is not given here.

Tests used:
RAW264.7 [1] = assay: Anti-inflammatory activity in mouse RAW 264.7 cells assessed as reduction in LPS-induced nitric oxide production at 7 uM preincubated for 2 hrs followed by LPS-stimulation measured after 24 hrs by Griess reagent method; assay type: functional, cell-based; settings: time 26.0 hrs
RAW264.7 [2] = assay: Anti-inflammatory activity in mouse RAW 264.7 cells assessed as reduction in LPS-induced TNF-alpha production preincubated for 2 hrs followed by LPS-stimulation measured after 24 hrs by ELISA; assay type: functional, cell-based; settings: time 26.0 hrs
RAW264.7 [3] = assay: Cytotoxicity against mouse RAW 264.7 cells assessed as reduction in cell viability by MTT assay; assay type: cell-based
RAW264.7 [4] = assay: Anti-inflammatory activity in mouse RAW 264.7 cells assessed as reduction in LPS-induced TNF-alpha production at 7 uM preincubated for 2 hrs followed by LPS-stimulation measured after 24 hrs by ELISA; assay type: functional, cell-based; settings: time 26.0 hrs
RAW264.7 [5] = assay: Anti-inflammatory activity in mouse RAW 264.7 cells assessed as reduction in LPS-induced nitric oxide production preincubated for 2 hrs followed by LPS-stimulation measured after 24 hrs by Griess reagent method; assay type: functional, cell-based; settings: time 26.0 hrs

CC[C@H](C)[C@H]1C[C@@]2(CC[C@H]3C[C@@H]2C3(C)C)OC2=C1C(=O)[C@](OC)(C(C)=O)C2
Activity (RAW264.7 [1]): Active
Activity (RAW264.7 [2]): Dose-dependent effect
Activity (RAW264.7 [3]): Non-Toxic
Activity (RAW264.7 [4]): Active
Activity (RAW264.7 [5]): Dose-dependent effect

CO[C@@]1(C(C)=O)CC2=C(C1=O)[C@H](C(C)C)C[C@@]1(CC[C@H]3C[C@@H]1C3(C)C)O2
Activity (RAW264.7 [1]): Active
Activity (RAW264.7 [2]): Dose-dependent effect
Activity (RAW264.7 [3]): Non-Toxic
Activity (RAW264.7 [4]): Active
Activity (RAW264.7 [5]): Dose-dependent effect
